This note sets out measurements from patent publication US6610649B2, “Insulin C-peptides” (Creative Peptides Sweden AB, priority 1996, dated 2003).

The test system of experiment [1] is Na^+K^+ATPase. As to the kind of experiment: Stimulation of Na+K+ATPase activity of rat renal tubule cells (microdissected proximal convoluted tubules, 32P-ATP with or without ouabain). The experiment is classed as cell-based. The settings on record: for activity of peptides containing D-amino acid isomers (in words): Na^+K^+ATPase of rat renal tubule segments; for relative stimulatory activity on Na^+K^+ATPase activity: 5-10^−7 M peptide, rat C-peptide 1 at the same concentration set at 100%, tubules incubated 30 minutes at room temperature; for stimulation of Na^+K^+ATPase activity compared with whole C-peptide (in words): renal tubule cells in vitro. Here is the method:
Fragments of the invention have been proven to stimulate Na^+K^+ATPase activity to varying extent. […] As much as 90% of the effect is achieved within 3 minutes. […] Combinations of Peptides A-D with Peptides E or F result in a stimulation of the enzyme activity that is greater than that for either peptide alone. For detailed examples of the stimulatory effects of the above peptides, see Example 1, below.
In the case of peptide A certain studies on Na^+K^+ATPase activity, studying the ability of the peptide fragments to stimulate the activity of Na^+K^+ATPase of rat renal tubule segments, have shown that one or more of the central tri-glycine residues may be important, and preferred peptide fragments, where peptide A is concerned, thus include at least one, and more preferably, at least two, of the central tri-glycine residues. Thus, in addition to peptides B, C and D mentioned above, representative exemplary peptide fragments include GGGPGAG (SEQ ID NO. 8), GGGPG (SEQ ID No. 9), GGGP (SEQ ID NO. 10), GGP and GGPG (SEQ ID NO. 11).
The stimulatory effect of Peptides A-F on Na^+K^+ATPase activity of rat renal tubule cells was examined. Single proximal convoluted tubules were prepared from rat kidneys by micro-dissection. The tubules were incubated for 30 minutes at room temperature with either of Peptides A-F or rat C-peptide 1. Na^+K^+ATPase activity was then measured following exposure of the tubules to hypotonic shock and incubation for 15 minutes in a medium containing ^32P-ATP in the presence or absence of oubain.
The stimulatory activity of 5-10^−7 M rat C-peptide 1 was set at 100%. For the same concentration of Peptides A-F the following relative activities were obtained: […]

Experiment [2] has as its system cell surface of human renal tubule cells (C-peptide binding site). As to the kind of experiment: Binding of rhodamine-labelled C-peptide to cultured human renal tubule cells, by fluorescence correlation spectroscopy. The settings on record: for effect of preincubation on binding of fluorescently labelled C-peptide (in words): preincubation of cells with the unlabelled peptide. Here is the method:
When fluorescently labelled C-peptide is incubated with cells it binds to the cell surface. […] For a detailed example of the binding of Fragment E see Example 28, below.
The specific binding of Peptide E to the cell surface is illustrated as follows. Human biosynthetic C-peptide (Eli-Lilly, Inc., Indianapolis, USA) was labelled with tetramethylrhodamine using the activated reagent tetramethylrhodamine succinimidyl ester (FluoReporter® Protein labelling kit, Art. no. F-6163; Molecular Probes Europe BV, Leiden, Netherlands). The coupling reaction was performed at pH 8.3 (0.1 M NaHCO3 buffer) with a five-fold stoichiometrical excess of activated reagent to C-peptide. The tetramethylrhodamine group has absorption/emission maxima at 555/580 nm, respectively and is incorporated in the N-terminus of the C-peptide. Labelled C-peptides were purified by gel filtration (desalting against 50 mM phosphate buffer, 0.1 M NaCl, pH 7.4) on a NAP-5 column; Pharmacia Biotech Uppsala, Sweden) and subsequently by preparative reverse phase chromatography (250 mm Kromasil C8 column, diam. 4.6 mm, 7 μm particle size, 10 nm pore size, Eka-Nobel, Surte, Sweden) using a 1090 Hewlett Packard HPLC chromatography system (Grenoble, France) (FIG. 1). Eluted material was immediately adjusted to pH 8 by addition of ammonia and subsequently lyophilized.
Cultured human renal tubule cells (proximal convoluted tubules, PCT) were incubated with the rhodamine labelled C-peptide synthesized as described above. The cells were prepared from the healthy part of a human kidney removed surgically because of hypernephroma. The outer 150 μm of the renal cortex was removed in a microtome and incubated in a collagenase solution (0.05%) at 37° C. for 15 minutes. A tissue suspension was centrifuged and rinsed twice with 0.01% soybean trypsin inhibitor-solution (Gibco Laboratories, Grand Island, N.Y., USA) and a concentrate of PCT fragments and PCT cells were plated onto glass cover slips. The cells were cultured in Dulbecco's Modified Eagle's Medium [DMEM, 20 mmol/l 4-(2-hydroxyethyl)-1-piperazineethane sulphoric acid (Hepes), 24 mmol/l NaHCO3 50,000 IU/l penicillin and 50 mg/l streptomycin, pH 7.4] with 10% fetal bovine serum (Gibco) in an incubator at 37° C. with 95% O2, and 5% CO2. After 28 hours in culture the medium was changed to DMEM with 1% fetal bovine serum. The cells were examined approximately 18-36 hours later.
The interaction between C-peptide and the cell surface of the tubule cells was recorded using fluorescence correlation spectroscopy (11). […] In contrast, when the cells were preincubated with 5 μM of Peptide E, C-peptide binding after 50 minutes was no more than 12%.

D,L-LG: the “activity of peptides containing D-amino acid isomers (in words)” value in experiment [1] is given as “active”.

For D-LG, the “activity of peptides containing D-amino acid isomers (in words)” value in experiment [1] is recorded as “active”.

As for “EAEDLQVGQVELGGGPGAGSLQPLALEGSLQ (N-terminal tetramethylrhodamine label) [C-peptide, human biosynthetic C-peptide (Eli-Lilly)]”, the “C-peptide bound to the cell surface” value in experiment [2] (C-peptide 5 nM, within 50 minutes, no competitor) is 92%. Moreover, in experiment [2], the “effect of preincubation on binding of fluorescently labelled C-peptide (in words)” value (“effect of preincubation” for short) is reported as “prevents binding of the fluorescently labelled C-peptide”.

As to “EGSLQ [Peptide E, C-terminal fragment of human insulin C-peptide]”, the “C-peptide remaining bound after later addition of the peptide” value in experiment [2] (C-peptide bound for 50 minutes, then peptide added, within 4 hours) is given as 14%. Also, the “C-peptide binding after 50 minutes” value in experiment [2] (cells preincubated with 5 μM of the peptide, C-peptide 5 nM) is “no more than 12%”. The “effect of preincubation” value in experiment [2] was “prevent binding of the fluorescently marked C-peptide”. Further, in experiment [1], the “relative stimulatory activity on Na^+K^+ATPase activity” value (“relative stimulatory activity” below) was determined as 110±3% and the “stimulation of Na^+K^+ATPase activity compared with whole C-peptide (in words)” value is “comparable to or greater than that for the whole molecule”.

For the substance ELGG [Peptide B, fragment of Peptide A], the “relative stimulatory activity” value in experiment [1] is 36±2%.

Take “ELGGGP [Peptide C, fragment of Peptide A]”: the “relative stimulatory activity” value in experiment [1] stood at 46±3%.

For the substance “ELGGGPGAG [Peptide A, fragment of human insulin C-peptide]”, the “relative stimulatory activity” value in experiment [1] was found to be 88±3%.

Consider “GGPGA [Peptide D, fragment of Peptide A]”, for which the “relative stimulatory activity” value in experiment [1] came to 65±4%.

Take GSLQ [Peptide F, fragment of Peptide E]: the “effect of preincubation” value in experiment [2] was “prevent binding of the fluorescently marked C-peptide”. Besides, in experiment [1], the “relative stimulatory activity” value amounted to 96±2% and the “stimulation of Na^+K^+ATPase activity compared with whole C-peptide (in words)” value is listed as “comparable to or greater than that for the whole molecule”.
